#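 1) Cells in 96-well plates. 2) Compound, 48 h, 5 concentrations. 3) Linear interpolation between surrounding doses. 4) Unreached endpoint = highest concentration. Abbreviation: GI50, concentration required for 50% inhibition of growth. TGI: total growth inhibition.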
# How the values were obtained:
# Test in all cases: NCI anticancer screen, dose series, 48 h
# [1] = tested on: DU-145 prostate
# [2] = tested on: SF-268 CNS
# [3] = tested on: 786-0 renal
# [4] = tested on: K-562 leukemia
# [5] = tested on: SN12C renal
# [6] = tested on: A498 renal
# [7] = tested on: MDA-MB-231 breast
# [8] = tested on: M14 melanoma
# [9] = tested on: MALME-3M melanoma
# [10] = tested on: UACC-62 melanoma
# [11] = tested on: NCI-H522 lung
# [12] = tested on: HCC-2998 colon
# [13] = tested on: LOX IMVI melanoma
# [14] = tested on: NCI-H226 lung
# [15] = tested on: NCI-H23 lung
# [16] = tested on: BT-549 breast
# [17] = tested on: RPMI-8226 leukemia
# [18] = tested on: SF-539 CNS
# [19] = tested on: HOP-62 NSCLC
# [20] = tested on: MCF7 breast
# [21] = tested on: OVCAR-3 ovarian
# [22] = tested on: IGROV1 ovarian
# [23] = tested on: UO-31 renal
# [24] = tested on: NCI/ADR-RES ovarian
# [25] = tested on: SF-295 CNS
# [26] = tested on: SR leukemia
# [27] = tested on: A549 NSCLC
# [28] = tested on: SK-OV-3 ovarian
# [29] = tested on: HL-60(TB) leukemia
smiles,measurement,setting,value
CCOC(=O)n1cc(C2=C(c3cn(C)c4ccccc34)COC2=O)c2ccccc21,TGI,[1],> 58000 nM
same,GI50,[2],1020 nM
same,TGI,[2],62900 nM
same,GI50,[3],268 nM
same,TGI,[3],15800 nM
same,GI50,[4],36.5 nM
same,TGI,[4],> 32200 nM
same,GI50,[5],306 nM
same,TGI,[5],> 100000 nM
same,GI50,[6],39.1 nM
same,TGI,[6],644 nM
same,GI50,[7],347 nM
same,TGI,[7],> 70500 nM
same,GI50,[8],47.8 nM
same,TGI,[8],> 100000 nM
same,GI50,[9],50.8 nM
same,TGI,[9],> 100000 nM
same,GI50,[10],59.9 nM
same,TGI,[10],> 55600 nM
same,GI50,[11],27.8 nM
same,TGI,[11],1020 nM
same,GI50,[12],167 nM
same,TGI,[12],> 100000 nM
same,GI50,[13],132 nM
same,TGI,[13],> 96600 nM
same,GI50,[14],452 nM
same,TGI,[14],> 39000 nM
same,GI50,[15],436 nM
same,TGI,[15],35500 nM
same,GI50,[16],145 nM
same,TGI,[16],11100 nM
same,GI50,[17],143 nM
same,GI50,[18],119 nM
same,TGI,[18],584 nM
same,GI50,[19],159 nM
same,TGI,[19],20400 nM
same,GI50,[20],32 nM
same,TGI,[20],> 100000 nM
same,GI50,[21],39.1 nM
same,TGI,[21],277 nM
same,GI50,[22],56.4 nM
same,TGI,[22],> 45800 nM
same,GI50,[23],78.1 nM
same,TGI,[23],> 100000 nM
same,GI50,[24],53.1 nM
same,GI50,[25],46.4 nM
same,TGI,[25],11000 nM
same,GI50,[26],44.9 nM
same,TGI,[26],16400 nM
same,GI50,[27],166 nM
same,TGI,[27],> 100000 nM
same,GI50,[28],1970 nM
same,TGI,[28],56800 nM
same,GI50,[29],124 nM
same,TGI,[29],511 nM
